# Assay results as given in article PMC8578635 (Nature Communications, 2021).
# Legend:
# TOP2A [1] = molecular target: T1, TOP2A (Homo sapiens, UniProt P11388); assay: kDNA decatenation and pBR322 relaxation assays with purified human topoisomerase II; supported by band depletion and RADAR TOP2cc assays in cells; assay type: biochemical
# TOP2A [2] = molecular target: T1, TOP2A; assay: kDNA decatenation and pBR322 relaxation assays with purified human topoisomerase II; band depletion in CHP-134 cells; assay type: biochemical
# [3] = molecular target: topoisomerase II beta (TOP2B) (Homo sapiens, UniProt Q02880); assay: kDNA decatenation and pBR322 relaxation assays with purified human topoisomerase II; assay type: biochemical
# TOP2A [4] = molecular target: T1, TOP2A; assay: as above
# T1 sequence (P11388 whole entry): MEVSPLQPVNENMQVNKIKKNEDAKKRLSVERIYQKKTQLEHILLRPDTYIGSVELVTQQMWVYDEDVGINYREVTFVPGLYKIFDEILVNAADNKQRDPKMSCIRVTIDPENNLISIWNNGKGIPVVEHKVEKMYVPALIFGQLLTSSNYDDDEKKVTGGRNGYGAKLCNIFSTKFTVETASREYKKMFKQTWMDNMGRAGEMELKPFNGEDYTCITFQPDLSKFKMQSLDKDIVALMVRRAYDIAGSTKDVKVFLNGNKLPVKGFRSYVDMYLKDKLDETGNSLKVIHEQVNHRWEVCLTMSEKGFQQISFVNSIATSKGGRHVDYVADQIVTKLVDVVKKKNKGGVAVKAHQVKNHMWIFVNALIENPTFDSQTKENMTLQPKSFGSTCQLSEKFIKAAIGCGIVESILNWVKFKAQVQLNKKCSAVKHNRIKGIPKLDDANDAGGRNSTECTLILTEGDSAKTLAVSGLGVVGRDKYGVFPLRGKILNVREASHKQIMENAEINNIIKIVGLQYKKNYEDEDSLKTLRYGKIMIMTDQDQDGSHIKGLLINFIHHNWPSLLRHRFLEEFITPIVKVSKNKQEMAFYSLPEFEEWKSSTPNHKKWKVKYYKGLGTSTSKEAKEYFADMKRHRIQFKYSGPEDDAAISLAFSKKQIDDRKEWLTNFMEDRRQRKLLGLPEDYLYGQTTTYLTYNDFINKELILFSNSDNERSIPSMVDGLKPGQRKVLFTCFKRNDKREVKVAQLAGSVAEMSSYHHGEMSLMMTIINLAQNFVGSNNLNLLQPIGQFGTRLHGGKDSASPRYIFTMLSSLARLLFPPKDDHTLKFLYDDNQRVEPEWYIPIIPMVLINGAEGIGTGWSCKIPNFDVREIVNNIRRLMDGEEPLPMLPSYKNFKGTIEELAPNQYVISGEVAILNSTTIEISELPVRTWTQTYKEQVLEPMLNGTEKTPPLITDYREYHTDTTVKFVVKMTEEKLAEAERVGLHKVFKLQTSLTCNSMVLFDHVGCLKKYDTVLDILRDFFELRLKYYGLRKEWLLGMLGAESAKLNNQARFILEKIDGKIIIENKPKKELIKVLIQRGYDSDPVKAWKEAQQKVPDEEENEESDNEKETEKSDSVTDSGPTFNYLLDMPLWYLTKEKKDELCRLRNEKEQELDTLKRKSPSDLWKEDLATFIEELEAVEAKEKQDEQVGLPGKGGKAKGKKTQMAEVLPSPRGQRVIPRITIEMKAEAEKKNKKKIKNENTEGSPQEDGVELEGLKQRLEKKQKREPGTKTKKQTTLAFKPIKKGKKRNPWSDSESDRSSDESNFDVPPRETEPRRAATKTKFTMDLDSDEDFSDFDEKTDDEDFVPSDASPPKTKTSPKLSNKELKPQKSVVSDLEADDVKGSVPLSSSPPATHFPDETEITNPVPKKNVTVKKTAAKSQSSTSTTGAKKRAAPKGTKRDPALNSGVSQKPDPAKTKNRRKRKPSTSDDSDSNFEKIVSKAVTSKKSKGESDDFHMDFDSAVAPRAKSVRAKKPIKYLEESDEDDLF
# topoisomerase II beta (TOP2B), sequence (Q02880 2-1626): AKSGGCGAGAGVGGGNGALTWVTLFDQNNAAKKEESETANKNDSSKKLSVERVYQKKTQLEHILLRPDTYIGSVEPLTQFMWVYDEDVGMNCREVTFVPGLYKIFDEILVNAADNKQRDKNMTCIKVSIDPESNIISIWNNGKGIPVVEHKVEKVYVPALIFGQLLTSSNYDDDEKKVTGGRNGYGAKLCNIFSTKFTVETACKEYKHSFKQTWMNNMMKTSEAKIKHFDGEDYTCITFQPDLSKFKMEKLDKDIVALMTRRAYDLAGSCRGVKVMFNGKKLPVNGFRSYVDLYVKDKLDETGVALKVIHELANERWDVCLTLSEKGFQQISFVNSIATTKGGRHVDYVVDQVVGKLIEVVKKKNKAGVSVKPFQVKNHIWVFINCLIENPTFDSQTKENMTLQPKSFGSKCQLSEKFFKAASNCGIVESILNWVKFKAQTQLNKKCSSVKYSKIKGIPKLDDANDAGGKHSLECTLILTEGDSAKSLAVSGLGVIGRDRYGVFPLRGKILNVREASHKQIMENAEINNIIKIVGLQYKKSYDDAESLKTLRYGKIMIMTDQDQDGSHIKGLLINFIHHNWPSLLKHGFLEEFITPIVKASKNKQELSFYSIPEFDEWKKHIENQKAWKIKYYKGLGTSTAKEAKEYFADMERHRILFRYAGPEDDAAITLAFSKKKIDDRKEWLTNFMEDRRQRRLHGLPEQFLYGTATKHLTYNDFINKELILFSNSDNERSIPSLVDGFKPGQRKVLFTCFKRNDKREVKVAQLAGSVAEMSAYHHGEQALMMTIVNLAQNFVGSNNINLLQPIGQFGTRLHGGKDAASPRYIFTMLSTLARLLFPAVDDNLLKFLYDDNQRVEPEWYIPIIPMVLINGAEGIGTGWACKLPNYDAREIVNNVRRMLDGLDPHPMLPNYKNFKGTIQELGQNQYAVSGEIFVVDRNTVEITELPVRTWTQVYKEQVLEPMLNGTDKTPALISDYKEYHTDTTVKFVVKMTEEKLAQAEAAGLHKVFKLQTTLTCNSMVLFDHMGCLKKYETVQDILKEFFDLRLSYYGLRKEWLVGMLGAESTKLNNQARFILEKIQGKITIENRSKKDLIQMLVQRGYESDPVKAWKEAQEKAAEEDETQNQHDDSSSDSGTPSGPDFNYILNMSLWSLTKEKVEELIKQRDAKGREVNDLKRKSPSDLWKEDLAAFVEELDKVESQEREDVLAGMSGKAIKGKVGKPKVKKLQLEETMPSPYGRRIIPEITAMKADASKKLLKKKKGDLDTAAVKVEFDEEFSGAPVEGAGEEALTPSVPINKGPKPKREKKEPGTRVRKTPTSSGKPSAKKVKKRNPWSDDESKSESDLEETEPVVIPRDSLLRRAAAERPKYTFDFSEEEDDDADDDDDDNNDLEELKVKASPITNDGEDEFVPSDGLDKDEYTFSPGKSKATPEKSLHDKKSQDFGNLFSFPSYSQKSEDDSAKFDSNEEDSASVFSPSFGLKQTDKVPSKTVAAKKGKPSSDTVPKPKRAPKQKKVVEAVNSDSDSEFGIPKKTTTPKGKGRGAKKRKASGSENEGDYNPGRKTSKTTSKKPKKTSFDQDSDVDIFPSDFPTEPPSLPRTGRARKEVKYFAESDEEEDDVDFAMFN
compound,measurement,setting,value
Cc1cnc(CNC(=O)c2c(=O)c3ccc(N4CCCN(C)CC4)nc3n3c2sc2ccccc23)cn1 [CX-5461],kDNA decatenation and pBR322 relaxation assays with purified human topoisomerase,TOP2A [1],CX-5461 inhibited the activity of both TOP2A and TOP2B—strikingly at concentrations substantially lower than etoposide
COc1cccc2c1C(=O)c1c(O)c3c(c(O)c1C2=O)C[C@@](O)(C(=O)CO)C[C@@H]3O[C@H]1C[C@H](N)[C@H](O)[C@H](C)O1 [doxorubicin],kDNA decatenation and pBR322 relaxation assays with purified human topoisomerase,TOP2A [2],Etoposide and doxorubicin had similar activity against both paralogs.
COc1cc([C@@H]2c3cc4c(cc3[C@@H](O[C@@H]3O[C@@H]5CO[C@@H](C)O[C@H]5[C@H](O)[C@H]3O)[C@H]3COC(=O)[C@H]23)OCO4)cc(OC)c1O [etoposide],kDNA decatenation and pBR322 relaxation assays with purified human topoisomerase,[3],Etoposide and doxorubicin had similar activity against both paralogs.
same,kDNA decatenation and pBR322 relaxation assays with purified human topoisomerase,TOP2A [4],Etoposide and doxorubicin had similar activity against both paralogs.
